Source: US20220233512A1, “INHIBITING AN IMMUNE RESPONSE MEDIATED BY ONE OR MORE OF TLR2, RAGE, CCR5, CXCR4 AND CD4” (priority 2020, published 2022)

Biological target: T1, mu opiate receptor (MOR) (Rattus norvegicus, UniProt P33535)
T1 construct: from tissue; host or cells: striatum (membrane preparation)
Assay: MOR agonist activity using [35S]GTPgS binding assay in striatal membranes
Type: biochemical
Parameters: MOR agonist activity (preliminary study): unit of the concentration uncertain
Conditions: for MOR agonist activity (preliminary study): average of two runs
Method in brief: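 Rat striatal membranes incubated 5 min at 30 °C in pH 7.5 HEPES buffer with 100 mM NaCl, 1 mM MgCl2 and 0.5 nM [35S]GTPgS, then 5 min with compound. Gαo-bound [35S]GTPgS isolated by immunoprecipitation and counted by liquid scintillation.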

[1] = 0.1 μM compound as agonist, Series C-1 table
[2] = 1 μM compound as agonist, Series C-1 table
[3] = 0.1 μM compound as agonist, Series C-2 table
[4] = 1 μM compound as agonist, Series C-2 table

T1 sequence (P33535 whole entry): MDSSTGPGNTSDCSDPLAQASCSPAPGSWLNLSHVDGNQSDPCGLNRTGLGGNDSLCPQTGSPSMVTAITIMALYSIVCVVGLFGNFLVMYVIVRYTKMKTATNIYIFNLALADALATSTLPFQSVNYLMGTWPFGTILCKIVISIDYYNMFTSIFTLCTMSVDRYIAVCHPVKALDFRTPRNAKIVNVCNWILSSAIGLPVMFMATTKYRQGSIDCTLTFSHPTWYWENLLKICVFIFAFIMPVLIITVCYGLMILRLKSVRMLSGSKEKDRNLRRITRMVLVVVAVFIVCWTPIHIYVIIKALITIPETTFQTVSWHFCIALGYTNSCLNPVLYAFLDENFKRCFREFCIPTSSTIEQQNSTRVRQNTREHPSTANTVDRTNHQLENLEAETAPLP

Row | SMILES | MOR agonist activity ([35S]GTPgS binding to Gao) [1] | MOR agonist activity ([35S]GTPgS binding to Gao) (1 μM + BFNA, Series C-1 table) | MOR agonist activity ([35S]GTPgS binding to Gao) [2] | MOR agonist activity ([35S]GTPgS binding to Gao) [3] | MOR agonist activity ([35S]GTPgS binding to Gao) (1 μM + BFNA, Series C-2 table) | MOR agonist activity ([35S]GTPgS binding to Gao) [4] | other results
1 | O=S(=O)(c1ccc(OC(F)(F)F)cc1)N1CCOC12CCN(CC1CC1)CC2 [Compound 4] | – | – | – | – | – | – | MOR agonist activity (preliminary study) (1 mM + bNFA): 49.5%; MOR agonist activity (preliminary study) (0.1 (unit uncertain) compound as agonist): 133.9%; MOR agonist activity (preliminary study) (1 (unit uncertain) compound as agonist): 165.2%
2 | CCCCc1ccc(S(=O)(=O)N2CCC3(CC2)OCCN3S(=O)(=O)c2ccc(CCCC)cc2)cc1 [Compound C0030] | 150.3% | 95.0% | 226.8% | – | – | – | –
3 | O=S(=O)(c1ccc(F)cc1)N1CCC2(CC1)OCCN2S(=O)(=O)c1ccc(F)cc1 [Compound C0029] | 175.4% | 16.6% | 308.8% | – | – | – | –
4 | CCCCN1CCC2(CC1)OCCN2S(=O)(=O)c1ccc(C(C)=O)cc1 [Compound C0101M] | – | – | – | 138.2% | 174.8% | 274.3% | –
5 | O=C1CN(Cc2ccccc2)C2(CCNCC2)N1 [Compound C0115M] | – | – | – | 177.2% | 118.4% | 226.8% | –
6 | O=C1CNC2(CCN(S(=O)(=O)c3ccc(O)cc3)CC2)N1Cc1ccccc1 [Compound C0148M] | 181.3% | 87.6% | 360.6% | – | – | – | % DAMGO + BFNA (relative to DAMGO + BFNA, Series C-1 table): 95.9%; % DAMGO (0.1 μM) (relative to DAMGO at 0.1 μM, Series C-1 table): 105.4%; % DAMGO (1 μM) (relative to DAMGO at 1 μM, Series C-1 table): 110.6%
7 | CS(=O)(=O)c1ccc(S(=O)(=O)N2CCC3(CC2)OCCN3S(=O)(=O)c2ccc(S(C)(=O)=O)cc2)cc1 [Compound C0009] | 146.3% | 26.4% | 256.2% | – | – | – | –
8 | CC(=O)c1ccc(S(=O)(=O)N2CCOC23CCN(C)CC3)cc1 [Compound C0093M] | – | – | – | 140.0% | 44.0% | 211.8% | –
9 | CC(=O)c1ccc(S(=O)(=O)N2CCC3(CC2)NC(=O)CN3Cc2ccccc2)cc1 [Compound C0085M] | 211.6% | 43.7% | 246.2% | – | – | – | –
10 | CC(=O)c1ccc(S(=O)(=O)N2CCC3(CC2)OCCN3S(=O)(=O)c2ccc(C(C)=O)cc2)cc1 [Compound C0011] | 217.0% | 19.0% | 305.0% | 217.0% | 19.0% | 305.0% | –
11 | O=S(=O)(c1ccc(Br)cc1)N1CCC2(CC1)OCCN2S(=O)(=O)c1ccc(Br)cc1 [Compound C0025] | 235.7% | 80.2% | 320.7% | – | – | – | –
12 | CC(O)c1ccc(S(=O)(=O)N2CCC3(CC2)OCCN3S(=O)(=O)c2ccc(C(C)O)cc2)cc1 (stereo not drawn) [Compound C0051] | 94.4% | 55.9% | 170.4% | – | – | – | –
13 | COc1ccc(S(=O)(=O)N2CCOC23CCNCC3)cc1 [Compound C0027] | – | – | – | 233.2% | 72.2% | 313.9% | –
14 | CC(=O)c1ccc(S(=O)(=O)N2CCOC23CCNCC3)cc1 [Compound C0046] | – | – | – | 286.2% | 156.8% | 492.9% | –
15 | O=[N+]([O-])c1ccc(S(=O)(=O)N2CCC3(CC2)NCCS3)cc1 [Compound C0044] | – | – | – | 173.7% | 59.1% | 280.1% | –
16 | O=S(=O)(c1ccc(Br)cc1C(F)(F)F)N1CCC2(CC1)OCCN2S(=O)(=O)c1ccc(Br)cc1C(F)(F)F [Compound C0068] | 107.2% | 165.9% | 263.1% | – | – | – | –

Row | SMILES | MOR agonist activity ([35S]GTPgS binding to Gao) [1] | MOR agonist activity ([35S]GTPgS binding to Gao) (1 μM + BFNA, Series C-1 table) | MOR agonist activity ([35S]GTPgS binding to Gao) [2] | MOR agonist activity ([35S]GTPgS binding to Gao) [3] | MOR agonist activity ([35S]GTPgS binding to Gao) (1 μM + BFNA, Series C-2 table) | MOR agonist activity ([35S]GTPgS binding to Gao) [4] | other results
17 | O=S(=O)(c1ccc(Br)cc1F)N1CCC2(CC1)OCCN2S(=O)(=O)c1ccc(Br)cc1F [Compound C0078] | 138.1% | 170.7% | 236.6% | – | – | – | –
18 | O=S(=O)(c1ccc(Oc2ccccc2)cc1)N1CCC2(CC1)OCCN2S(=O)(=O)c1ccc(Oc2ccccc2)cc1 [Compound C0149M] | 209.8% | 93.4% | 406.7% | – | – | – | –
19 | COc1ccc(NC(=O)N2CCC3(CC2)OCCN3C(=O)Nc2ccc(OC)cc2)cc1 [Compound C0151M] | 346.8% | 212.8% | 397.6% | – | – | – | –
20 | O=[N+]([O-])c1ccc(S(=O)(=O)N2CCC3(CC2)NCCO3)cc1 [Compound C0040] | – | – | – | 145.8% | 90.4% | 308.3% | –
21 | COC(=O)c1ccc(S(=O)(=O)N2CCC3(CC2)OCCN3S(=O)(=O)c2ccc(C(=O)OC)cc2)cc1 [Compound C0028] | 93.9% | 78.4% | 132.4% | – | – | – | –
22 | COc1ccc(C(=O)N2CCC3(CC2)OCCN3C(=O)c2ccc(OC)cc2)cc1 [Compound C0017] | 153.8% | 94.1% | 284.5% | – | – | – | –
23 | O=C1CNC2(CCNCC2)N1Cc1ccccc1 [Compound C0114M] | – | – | – | 114.0% | 35.9% | 144.3% | –
24 | CC(=O)c1ccc(S(=O)(=O)N2CCC3(CC2)OCCN3S(C)(=O)=O)cc1 [Compound C0056] | – | – | – | 98.6% | 86.3% | 193.4% | –
25 | CN1CCC2(CC1)NC(=O)CN2Cc1ccccc1 [Compound C0104M] | – | – | – | 188.2% | 143.8% | 238.9% | –
26 | CC(=O)c1ccc(S(=O)(=O)N2CCOC23CCN(CC2CC2)CC3)cc1 [Compound C0095M] | – | – | – | 189.1% | 107.7% | 224.6% | –
27 | COc1ccc(NC(=O)N2CCC3(CC2)NCCO3)cc1 [Compound C0151M-2] | – | – | – | 346.8% | 212.8% | 397.6% | –
28 | COc1ccc(S(=O)(=O)N2CCC3(NCCO3)C3CCCCC32)cc1 (stereo not drawn) [Compound C0144M-2] | – | – | – | 186.3% | 125.9% | 295.9% | –
29 | CCN1CCC2(CC1)OCCN2S(=O)(=O)c1ccc(C(C)=O)cc1 [Compound C0094M] | – | – | – | 172.5% | 115.3% | 263.5% | –
30 | O=C1CN(C2CCc3ccccc3C2)C2(CCN(S(=O)(=O)c3ccccc3)CC2)N1 (stereo not drawn) [C0136M/ (P5)] | – | – | – | 176.8% | 74.5% | 237.3% | –
31 | O=S(=O)(c1ccc(Br)c(C(F)(F)F)c1)N1CCC2(CC1)OCCN2S(=O)(=O)c1ccc(Br)c(C(F)(F)F)c1 [Compound C0077] | 192.7% | 136.7% | 265.4% | – | – | – | –
32 | O=C1CN(Cc2ccccc2)C2(CCN(C3CCCCC3)CC2)N1 [C0137M P7] | – | – | – | 180.8% | 55.8% | 193.8% | –
